Biological target: T1, human GR (Homo sapiens, UniProt P04150)
T1 sequence (P04150 1-777): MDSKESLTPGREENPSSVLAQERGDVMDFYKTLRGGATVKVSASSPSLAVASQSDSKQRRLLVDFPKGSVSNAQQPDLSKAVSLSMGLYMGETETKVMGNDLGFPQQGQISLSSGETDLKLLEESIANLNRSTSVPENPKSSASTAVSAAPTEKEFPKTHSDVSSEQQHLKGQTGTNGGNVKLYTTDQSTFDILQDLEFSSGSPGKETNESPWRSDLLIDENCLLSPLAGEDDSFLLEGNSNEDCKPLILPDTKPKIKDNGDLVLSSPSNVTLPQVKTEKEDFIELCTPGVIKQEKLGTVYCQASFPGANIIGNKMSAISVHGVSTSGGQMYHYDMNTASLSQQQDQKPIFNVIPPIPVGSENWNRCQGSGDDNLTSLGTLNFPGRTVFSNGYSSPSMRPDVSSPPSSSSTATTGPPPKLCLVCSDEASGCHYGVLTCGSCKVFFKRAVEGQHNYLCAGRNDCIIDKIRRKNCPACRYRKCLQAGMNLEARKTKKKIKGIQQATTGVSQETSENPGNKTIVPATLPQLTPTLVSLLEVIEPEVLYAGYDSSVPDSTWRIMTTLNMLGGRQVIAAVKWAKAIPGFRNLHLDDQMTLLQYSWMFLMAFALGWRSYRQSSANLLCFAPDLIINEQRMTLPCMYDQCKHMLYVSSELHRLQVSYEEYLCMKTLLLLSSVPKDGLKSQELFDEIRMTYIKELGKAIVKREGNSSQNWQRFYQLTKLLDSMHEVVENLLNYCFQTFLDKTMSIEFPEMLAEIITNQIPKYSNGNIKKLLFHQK
Assay: Transrepression Assay (GITAR), TNFα-β-lactamase reporter gene in U937 cells
Format: cell-based
Design: U937 cells contain an endogenous glucocorticoid receptor (GR); endogenous in cells; host or cells: U937 cells stably transfected with the TNF-α promoter/β-lactamase reporter only
Conditions: U-937; 100 nM dexamethasone = 100% activity; read-out: maximal activity in the transrepression assay
How it was run: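 Reporter readout used CCF2-AM loading for 70–90 min at room temperature after overnight (~18 h, 37 °C) PMA (5 ng/ml final) and LPS (100 ng/ml final) stimulation of compound-treated (30–45 min) TNFα-β-lactamase U937 cells expressing native GR. Activity was normalised to 100 nM dexamethasone repression.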

| Structure (SMILES) | Emax [%] |
| --- | --- |
| C[C@]12Cc3cnn(-c4ccc(F)cc4)c3C=C1CC[C@@]2(O)CCc1cccc(F)c1CN [Example 153, (4αS,5R)-5-{2-[2-(aminomethyl)-3-fluorophenyl]ethyl}-1-(4-fluorophenyl)-4α-methyl-1,4,4α,5,6,7-hexahydrocyclopenta[f]indazol-5-ol] | 5 to 100 |
| C[C@]12Cc3cnn(-c4ccc(F)cc4)c3C=C1CC[C@@]2(O)CCc1ccccc1-c1cscn1 [Example 158, (4αS,5R)-1-(4-fluorophenyl)-4α-methyl-5-{2-[2-[1,3-thiazol-4-yl)phenyl]ethyl}-1,4,4α,5,6,7-hexahydrocyclopenta[f]indazol-5-ol] | 5 to 100 |
| Cc1ccc(C#N)c(CC[C@]2(O)CCC3=Cc4c(cnn4-c4ccc(F)cc4)C[C@@]32C)c1 [Example 162, 2-{2-[(4αS,5R)-1-(4-fluorophenyl)-5-hydroxy-4α-methyl-1,4,4α,5,6,7-hexahydrocyclopenta[f]indazol-5-yl]ethyl}-4-methylbenzonitrile] | 5 to 100 |
| C[C@]12Cc3cnn(-c4ccccc4)c3C=C1CC[C@@]2(O)CCc1cccc(F)c1C(N)=O [Example 167, 2-fluoro-6-{2-[(4αS,5R)-5-hydroxy-4α-methyl-1-phenyl-1,4,4α,5,6,7-hexahydrocyclopenta[f]indazol-5-yl]ethyl}benzamide] | 5 to 100 |
| C[C@]12Cc3cnn(-c4ccc(F)cc4)c3C=C1CC[C@@]2(O)CCc1cccc(Cl)c1C(N)=O [Example 169, 2-chloro-6-{2-[(4αS,5R)-1-(4-fluorophenyl)-5-hydroxy-4α-methyl-1,4,4α,5,6,7-hexahydrocyclopenta[f]indazol-5-yl]ethyl}benzamide] | 5 to 100 |
| C[C@]12Cc3cnn(-c4ccc(F)cc4)c3C=C1CC[C@@]2(O)CCc1cc(Cl)ccc1C(N)=O [Example 171, 4-chloro-2-{2-[(4αS,5R)-1-(4-fluorophenyl)-5-hydroxy-4α-methyl-1,4,4α,5,6,7-hexahydrocyclopenta[f]indazol-5-yl]ethyl}benzamide] | 5 to 100 |
| C[C@]12Cc3cnn(-c4ccc(F)cc4)c3C=C1CC[C@@]2(O)CCc1cc(C(F)(F)F)ccc1C(N)=O [Example 173, 2-{2-[(4α6,5R)-1-(4-fluorophenyl)-5-hydroxy-4α-methyl-1,4,4α,5,6,7-hexahydrocyclopenta[f]indazol-5-yl]ethyl}-4-(trifluoromethyl)benzamide] | 5 to 100 |
| C[C@]12Cc3cnn(-c4ccc(F)cc4)c3C=C1CC[C@@]2(O)CCc1ccc(C(F)(F)F)cc1C(N)=O [Example 175, 2-{2-[(4αS,5R)-1-(4-fluorophenyl)-5-hydroxy-4α-methyl-1,4,4α,5,6,7-hexahydrocyclopenta[f]indazol-5-yl]ethyl}-5-(trifluoromethyl)benzamide] | 5 to 100 |
| C[C@]12Cc3cnn(-c4ccc(F)c(F)c4)c3C=C1CC[C@@]2(O)CCc1cccc(Cl)c1C(N)=O [Example 176, 2-chloro-6-{2-[(4αS,5R)-1-(3,4-difluorophenyl)-5-hydroxy-4α-methyl-1,4,4α,5,6,7-hexahydrocyclopenta[f]indazol-5-yl]ethyl}benzamide] | 5 to 100 |
| C[C@]12Cc3cnn(-c4ccc(F)c(F)c4)c3C=C1CC[C@@]2(O)CCc1cc(Cl)ccc1C(N)=O [Example 177, 4-chloro-2-{2-[(4αS,5R)-1-(3,4-difluorophenyl)-5-hydroxy-4α-methyl-1,4,4α,5,6,7-hexahydrocyclopenta[f]indazol-5-yl]ethyl}benzamide] | 5 to 100 |
| CO[C@@]1(CCc2ccc(C(F)(F)F)cc2C(N)=O)CCC2=Cc3c(cnn3-c3ccc(F)cc3)C[C@@]21C [Example 179, 2-{2-[(4αS,5R)-1-(4-fluorophenyl)-5-methoxy-4α-methyl-1,4,4α,5,6,7-hexahydrocyclopenta[f]indazol-5-yl]ethyl}-5-(trifluoromethyl)benzamide] | 5 to 100 |
| Cc1cccc(CC[C@]2(O)CCC3=Cc4c(cnn4-c4ccc(F)cc4)C[C@@]32C)c1C(N)=O [Example 182, 2-{2-[(4αS,5R)-1-(4-fluorophenyl)-5-hydroxy-4α-methyl-1,4,4α,5,6,7-hexahydrocyclopenta[f]indazol-5-yl]ethyl}-6-methylbenzamide] | 5 to 100 |

Second part, the compound after the results:

| Emax [%] | Structure (SMILES) |
| --- | --- |
| 5 to 100 | C[C@]12Cc3cnn(-c4ccc(F)cc4)c3C=C1CC[C@@]2(O)CCc1cccc(F)c1C=O [Example 154, 2-fluoro-6-{2-[(4αS,5R)-1-(4-fluorophenyl)-5-hydroxy-4α-methyl-1,4,4α,5,6,7-hexahydrocyclopenta[f]indazol-5-yl]ethyl}benzaldehyde] |
| 5 to 100 | C[C@]12Cc3cnn(-c4ccc(F)cc4)c3C=C1CC[C@@]2(O)CCc1cccc(F)c1C(=O)N1CC(=O)C1 [Example 155, 1-(2-fluoro-6-{2-[(4αS,5R)-1-(4-fluorophenyl)-5-hydroxy-4α-methyl-1,4,4α,5,6,7-hexahydrocyclopenta[f]indazol-5-yl]ethyl}benzoyl)azetidin-3-one] |
| 5 to 100 | C[C@]12Cc3cnn(-c4ccc(F)cc4)c3C=C1CC[C@@]2(O)CCc1cc(C(F)(F)F)ccc1C#N [Example 161, 2-{2-[(4αS,5R)-1-(4-fluorophenyl)-5-hydroxy-4α-methyl-1,4,4α,5,6,7-hexahydrocyclopenta[f]indazol-5-yl]ethyl}-4-(trifluoromethyl)benzonitrile] |
| 5 to 100 | C[C@]12Cc3cnn(-c4ccc(F)cc4)c3C=C1CC[C@@]2(O)CCc1ccc(C(F)(F)F)cc1C#N [Example 164, 2-{2-[(4αS,5R)-1-(4-fluorophenyl)-5-hydroxy-4α-methyl-1,4,4α,5,6,7-hexahydrocyclopenta[f]indazol-5-yl]ethyl}-5-(trifluoromethyl)benzonitrile] |
| 5 to 100 | CO[C@@]1(CCc2ccccc2C(N)=O)CCC2=Cc3c(cnn3-c3ccc(F)cc3)C[C@@]21C [Example 165, 2-{2-[(4αS,5R)-1-(4-fluorophenyl)-5-methoxy-4α-methyl-1,4,4α,5,6,7-hexahydrocyclopenta[f]indazol-5-yl]ethyl}benzamide] |
| 5 to 100 | C[C@]12Cc3cnn(-c4ccc(F)cc4)c3C=C1CC[C@@]2(O)CCc1cc(F)ccc1C(N)=O [Example 166, 4-fluoro-2-{2-[(4αS,5R)-1-(4-fluorophenyl)-5-hydroxy-4α-methyl-1,4,4α,5,6,7-hexahydrocyclopenta[f]indazol-5-yl]ethyl}benzamide] |
| 5 to 100 | C[C@]12Cc3cnn(-c4ccc(F)cc4)c3C=C1CC[C@@]2(O)CCc1cc(F)c(F)cc1C(N)=O [Example 178, 4,5-difluoro-2-{2-[(4αS,5R)-1-(4-fluorophenyl)-5-hydroxy-4α-methyl-1,4,4α,5,6,7-hexahydrocyclopenta[f]indazol-5-yl]ethyl}benzamide] |
| 5 to 100 | C[C@]12Cc3cnn(-c4ccc(F)cc4)c3C=C1CC[C@@]2(O)CCc1ccc(C#N)cc1C(N)=O [Example 180, 5-cyano-2-{2-[(4αS,5R)-1-(4-fluorophenyl)-5-hydroxy-4α-methyl-1,4,4α,5,6,7-hexahydrocyclopenta[f]indazol-5-yl]ethyl}benzamide] |
| 5 to 100 | Cc1ccc(CC[C@]2(O)CCC3=Cc4c(cnn4-c4ccc(F)cc4)C[C@@]32C)c(C(N)=O)c1 [Example 181, 2-{2-[(4αS,5R)-1-(4-fluorophenyl)-5-hydroxy-4α-methyl-1,4,4α,5,6,7-hexahydrocyclopenta[f]indazol-5-yl]ethyl}-5-methylbenzamide] |
